Data as given in patent US20240239811A1, “5-(5-(PIPERIDIN-4-YL)THIENO[3,2-C]PYRAZOL-2-YL]INDAZOLE DERIVATIVES AND RELATED COMPOUNDS AS MODULATORS FOR SPLICING NUCLEIC ACIDS AND FOR THE T” (REMIX THERAPEUTICS INC., priority 2020, published 2024).

Assays:
Type in all cases: cell-based
HTT mRNA = assay: Splicing assay (RT-qPCR) monitoring HTT splice variants, canonical (CJ) and alternative (AJ) junction; conditions: 50% response, A673 or K562 cell line, 24 hours; for IC50: decrease in CJ mRNA; for AC50: increase in AJ mRNA
Method: (§1) Compounds described herein were used to modulate RNA transcript abundance in cells. The expression of a target mRNA was measured by detecting the formation of an exon-exon junction in the canonical transcript (CJ). A compound mediated exon-inclusion event was detected by observing an increase in formation of a new junction with an alternative exon (AJ). Real-time qPCR assays were used to detect these splicing switches and interrogate the potency of various compounds towards different target genes. A high-throughput real time quantitative PCR (RT-qPCR) assay was developed to measure these two isoforms of the mRNA (CJ and AJ) for an exemplary gene, HTT, together with a control housekeeping gene, GAPDH or GUSB or PPIA, used for normalization. Briefly, the A673 or K562 cell line was treated with various compounds described herein (e.g., compounds of Formula (I)). After treatment, the levels of the HTT mRNA targets were determined from each sample of cell lysate by cDNA synthesis followed by qPCR.
• Cells-to-CT 1-step kit: ThermoFisher A25602, Cells-to-CT lysis reagent: ThermoFisher 4391851C, TaqMan™ Fast Virus 1-Step Master Mix: ThermoFisher 4444436 • GAPDH: VIC-PL, ThermoFisher 4326317E (Assay: Hs99999905_ml)—used for K562/suspension cell lines • GUSB: VIC-PL, ThermoFisher 4326320E (Assay: Hs99999908_ml)—used for K562/suspension cell lines • PPIA: VIC-PL, ThermoFisher 4326316E (Assay: Hs99999904_ml)—used for A673/adherent cell lines
(§2) The A673 cell line was cultured in DMEM with 10% FBS. Cells were diluted with full growth media and plated in a 96-well plate (15,000 cells in 100ul media per well). The plate was incubated at 37° C. with 5% CO2 for 24 hours to allow cells to adhere. An 11-point 3-fold serial dilution of the compounds was made in DMSO then diluted in media in an intermediate plate. Compounds were transferred from the intermediate plate to the cell plate with the top dose at a final concentration of 10 uM in the well. Final DMSO concentration was kept at or below 0.25%. The cell plate was returned to the incubator at 37° C. with 5% CO2 for an additional 24 hours.
(§3) The K562 cell line was cultured in IMDM with 10% FBS. For K562, cells were diluted with full growth media and plated in either a 96-well plate (50,000 cells in 50 uL media per well) or a 384-well plate (8,000-40,000 cells in 45 uL media per well). An 11-point 3-fold serial dilution of the compounds were made in DMSO then diluted in media in an intermediate plate. Compound was transferred from the intermediate plate to the cell plate with the top dose at a final concentration of 10 uM in the well. Final DMSO concentration was kept at or below 0.25%. Final volume was 100 uL for 96-well plate and 50 uL for 384-well plate. The cell plate was then placed in an incubator at 37° C. with 5% CO2 for 24 hours.
The cells were then gently washed with 50 uL-100 uL cold PBS before proceeding to addition of lysis buffer. 30 uL-50 uL of room temperature lysis buffer with DNAse I (and optionally RNAsin) was added to each well. Cells were shaken/mixed thoroughly at room temperature for 5-10 minutes for lysis to take place and then 3 uL-5 uL of room temperature stop solution was added and wells were shaken/mixed again. After 2-5 minutes, the cell lysate plate was transferred to ice for RT-qPCR reaction setup. The lysates could also be frozen at −80° C. for later use.
In some cases, a direct lysis buffer was used. An appropriate volume of 3X lysis buffer (10 mM Tris, 150 mM NaCl, 1.5%-2.5% Igepal and 0.1-1 U/uL RNAsin, pH 7.4) was directly added to either K562 or A673 cells in media and mixed by pipetting 3 times. The plates were then incubated at room temperature with shaking/rocking for 20-50 minutes to allow for lysis to take place. After this time, the cell lysate plate was transferred to ice to set up for the RT-qPCR reactions. The lysates could also be frozen at −80° C. for later use. […]

HTT CJ mRNA = assay: Gene panel canonical junction qPCR assay, HTT; conditions: Table 6, decrease in CJ mRNA, read-out: HTT IC50 (decrease in CJ mRNA levels)
Method: as §1, §2, §3
(§4) The data analysis was performed by first determining the ΔCt vs the housekeeper gene. This ΔCt was then normalized against the DMSO control (ΔΔCt) and converted to RQ (relative quantification) using the 2^(−ΔΔCt) equation. The RQ were then converted to a percentage response by arbitrarily setting an assay window of 3.5 ΔCt for HTT-CJ and an assay window of 9 ΔCt for HTT-AJ. […] The percentage response was then fitted to the 4 parametric logistic equation to evaluate the concentration dependence of compound treatment. The increase in AJ mRNA is reported as AC50 (compound concentration having 50% response in AJ increase) while the decrease in CJ mRNA levels is reported as IC50 (compound concentration having 50% response in CJ decrease).
(§5) Additional studies were carried out for a larger panel of genes using the protocol provided above. The junction between flanking upstream and downstream exons was used to design canonical junction qPCR assays. At least one of the forward primer, reverse primer or the CY5-labeled 5′ nuclease probe (with 3′ quencher such as ZEN/Iowa Black FQ) was designed to overlap with the exon junction to capture the CJ mRNA transcript. BLAST was used to confirm the specificity of the probeset and parameters such as melting temperature, GC content, amplicon size, and primer dimer formation are considered during their design. Data for the decrease in CJ mRNA levels for three exemplary genes (HTT, SMN2, and Target C) analyzed in this panel are reported as IC50 (compound concentration having […] in CJ decrease).

SMN2 CJ mRNA = assay: Gene panel canonical junction qPCR assay, SMN2; conditions: Table 6, decrease in CJ mRNA, read-out: SMN2 IC50 (decrease in CJ mRNA levels)
Method: as §1, §2, §3, §4, §5

Target C CJ mRNA = assay: Gene panel canonical junction qPCR assay, Target C; conditions: Table 6, decrease in CJ mRNA, read-out: Target C IC50 (decrease in CJ mRNA levels)
Method: as §1, §2, §3, §4, §5

Structure (SMILES) | IC50 (HTT mRNA) [µM] | AC50 (HTT mRNA) [µM] | IC50 (HTT CJ mRNA) [µM] | IC50 (SMN2 CJ mRNA) [µM] | IC50 (Target C CJ mRNA) [µM]
Cc1cn2nc(-c3nc4sc(C5=CCNCC5)cc4s3)cc(C)c2n1 [Compound 198, 4-(2-{2,8-dimethylimidazo[1,2-b]pyridazin-6-yl}thieno[2,3-d][1,3]thiazol-5-yl)-1,2,3,6-tetrahydropyridine] | < 0.1 | 0.1 to 1 | < 0.1 | < 0.1 | 1 to 10
COc1c(-c2nc3sc(C4CCNCC4)cc3s2)cc(F)c2nn(C)cc12 [Compound 237, 7-fluoro-4-methoxy-2-methyl-5-[5-(piperidin-4-yl)thieno[2,3-d][1,3]thiazol-2-yl]indazole] | > 10 | > 10 | > 10 | > 10 | > 10
Cn1cc2cc(-c3nc4sc(N5CCN6CCCC6C5)cc4s3)cc(F)c2n1 (stereo not shown) [Compound 144, 7-fluoro-5-(5-[hexahydro-1H-pyrrolo[1,2-a]pyrazin-2-yl]thieno[2,3-d][1,3]thiazol-2-yl)-2-methylindazole] | 1 to 10 | 0.1 to 1 | 1 to 10 | < 0.1 | > 10
CN(C)C1CCN(c2cc3sc(-c4cc(F)c5nn(C)cc5c4)nc3s2)CC1 [Compound 154, 1-[2-(7-fluoro-2-methylindazol-5-yl)thieno[2,3-d][1,3]thiazol-5-yl]-N,N-dimethylpiperidin-4-amine] | 0.1 to 1 | 0.1 to 1 | 0.1 to 1 | < 0.1 | 0.1 to 1
Cn1cc2cc(-c3nc4sc(C5CCNCC5)cc4s3)cc(F)c2n1 [Compound 106, 7-fluoro-2-methyl-5-[5-(piperidin-4-yl)thieno[2,3-d][1,3]thiazol-2-yl]indazole] | < 0.1 | < 0.1 | < 0.1 | < 0.1 | < 0.1
Cn1cc2cc(-c3nc4sc(N5CCC56CCNCC6)cc4s3)cc(F)c2n1 [Compound 201, 1-[2-(7-fluoro-2-methylindazol-5-yl)thieno[2,3-d] [1,3]thiazol-5-yl]-1,7-diazaspiro[3.5]nonane] | > 10 | > 10 | > 10 | > 10 | > 10
Cc1cn2cc(-n3cc4sc(C5CCNCC5)cc4n3)ncc2n1 [Compound 169] | 1 to 10 | 1 to 10 | 1 to 10 | 1 to 10 | 1 to 10
CN1CCC(n2cc3cc(-c4cc(F)c5nn(C)cc5c4)sc3n2)CC1 [Compound 150, 7-fluoro-2-methyl-5-[2-(1-methylpiperidin-4-yl)thieno[2,3-c]pyrazol-5-yl]indazole] | 0.1 to 1 | 0.1 to 1 | 0.1 to 1 | < 0.1 | 0.1 to 1
c1n[nH]cc1-n1cc2sc(C3CCNCC3)cc2n1 [Compound 176] | > 10 | > 10 | > 10 | > 10 | > 10
Cc1cn2nc(-c3nc4sc(C5=CCOCC5)cc4s3)cc(C)c2n1 [Compound 195, 6-[5-(3,6-dihydro-2H-pyran-4-yl)thieno[2,3-d][1,3]thiazol-2-yl]-2,8-dimethylimidazo[1,2-b]pyridazine] | 0.1 to 1 | 0.1 to 1 | 0.1 to 1 | 0.1 to 1 | 0.1 to 1
Cn1cc2cc(-c3cc4cn(C5CCNCC5)nc4s3)c(O)c(F)c2n1 [Compound 215] | 0.1 to 1 | 0.1 to 1 | 0.1 to 1 | < 0.1 | 0.1 to 1
Cc1c(O)c(-c2cc3cn(C4CCNCC4)nc3s2)cc2cn(C)nc12 [Compound 221] | > 10 | > 10 | > 10 | > 10 | > 10
Cn1cc2cc(-c3cc4cn(C5CCNCC5)nc4s3)ccc2n1 [Compound 207] | 0.1 to 1 | 0.1 to 1 | 0.1 to 1 | < 0.1 | 1 to 10
Cn1cc2cc(-c3cc4cn(C5=CCOCC5)nc4s3)cc(F)c2n1 [Compound 177] | > 10 | > 10 | > 10 | > 10 | > 10
Cn1cc2cc(-c3nc4sc(C5CCNCC5)cn4n3)cc(F)c2n1 [Compound 103, 7-fluoro-2-methyl-5-[5-(piperidin-4-yl)-[1,2,4]triazolo[3,2-b][1,3]thiazol-2-yl]indazole] | > 10 | > 10 | > 10 | > 10 | > 10
Cn1cc2cc(-c3cc4cn([C@@H]5CCNC[C@H]5F)nc4s3)cc(F)c2n1 [Compound 187] | < 0.1 | < 0.1 | < 0.1 | < 0.1 | 0.1 to 1
CN(c1cc2sc(-c3ccc(-c4cn[nH]c4)cc3O)nc2s1)[C@@H]1C[C@H]2CC[C@@H](C1)N2 [Compound 191, 2-{5-[(1R,3R,5S)-8-azabicyclo[3.2.1]octan-3-yl(methyl)amino]thieno[2,3-d][1,3]-thiazol-2-yl}-5-(1H-pyrazol-4-yl)phenol] | > 10 | > 10 | > 10 | > 10 | > 10
Cn1cc2cc(-c3nc4sc(N5CCNC6(CC6)C5)cc4s3)cc(F)c2n1 [Compound 136, 5-(5-[4,7-diazaspiro[2.5]octan-7-yl]thieno[2,3-d][1,3]thiazol-2-yl)-7-fluoro-2-methylindazole] | > 10 | > 10 | > 10 | 0.1 to 1 | > 10
Cc1cn2nc(-c3nc4sc(C5CCNCC5)cc4s3)cc(C)c2n1 [Compound 112, 4-(2-[2,8-dimethylimidazo[1,2-b]pyridazin-6-yl]thieno[2,3-d][1,3]thiazol-5-yl)piperidine] | < 0.1 | < 0.1 | < 0.1 | < 0.1 | < 0.1
Cc1cn2cc(-n3cc4sc(C5CCNCC5)cc4n3)cc(C)c2n1 [Compound 173] | 1 to 10 | 1 to 10 | 1 to 10 | 1 to 10 | > 10
